Data: ChEMBL document CHEMBL1201862, “PubChem BioAssay data set” (2004)
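Method: 48-hour compound exposure of cells in 96-well plates, five concentrations, linear interpolation of endpoints. Abbreviation: GI50, concentration required for 50% inhibition of growth.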 Active and inactive are the calls of the source. No stated cut-off is given here; in the data, active = GI50 up to about 1.1 µM and inactive = higher.

What was measured:
Experiment in all cases: DTP human tumour cell line panel, 48 h
ACHN = test system: ACHN
IGROV-1 = test system: IGROV-1
SN12C = test system: SN12C
NCI-H522 = test system: NCI-H522
U-251 = test system: U-251
EKVX = test system: EKVX
UACC-62 = test system: UACC-62
SF-539 = test system: SF-539
SK-MEL-5 = test system: SK-MEL-5
Malme-3M = test system: Malme-3M
DMS-114 = test system: DMS-114
BT-549 = test system: BT-549
KM12 = test system: KM12
HL-60 = test system: HL-60
MDA-MB-231 = test system: MDA-MB-231
TK-10 = test system: TK-10
SR = test system: SR
MDA-N = test system: MDA-N
SW-620 = test system: SW-620
RPMI-8226 = test system: RPMI-8226

Row | SMILES | GI50 (ACHN) | GI50 (IGROV-1) | GI50 (SN12C) | GI50 (NCI-H522) | GI50 (U-251) | GI50 (EKVX) | GI50 (UACC-62) | GI50 (SF-539) | GI50 (SK-MEL-5) | GI50 (Malme-3M) | GI50 (DMS-114) | GI50 (BT-549) | GI50 (KM12) | GI50 (HL-60) | GI50 (MDA-MB-231) | GI50 (TK-10) | GI50 (SR) | GI50 (MDA-N) | GI50 (SW-620) | GI50 (RPMI-8226)
1 | COc1ccc(/C(=N/Nc2ccccc2)C(c2ccc(OC)cc2)C2OC(=O)c3ccccc32)cc1 (centres undefined) | 97.1 µM (inactive) | 83.9 µM (inactive) | > 100 µM (inactive) | 70.5 µM (inactive) | > 100 µM (inactive) | 37.8 µM (inactive) | 52.7 µM (inactive) | > 100 µM (inactive) | 33.2 µM (inactive) | > 100 µM (inactive) | 50 µM (inactive) | – | – | – | – | – | – | – | – | –
2 | COC(=O)CCc1cc(OC)c2c(c1)[C@H](C(=O)OC)[C@@H](c1ccc(O)c(OC)c1)O2 | 86.5 µM (inactive) | 61.8 µM (inactive) | 56.9 µM (inactive) | 38.3 µM (inactive) | 38.4 µM (inactive) | 58.2 µM (inactive) | 39.8 µM (inactive) | 48.2 µM (inactive) | 35 µM (inactive) | 29.9 µM (inactive) | – | 44.8 µM (inactive) | 30.6 µM (inactive) | 15.5 µM (inactive) | 50.6 µM (inactive) | > 100 µM (inactive) | 1.43 µM (inactive) | 17.7 µM (inactive) | 47.4 µM (inactive) | 17.6 µM (inactive)
3 | CCOc1ccc(NC(=O)C(=O)C(C(=O)c2ccc3ccccc3c2)C2OC(=O)c3ccccc32)cc1 (centres undefined) | 33.4 µM (inactive) | 17.6 µM (inactive) | 17.2 µM (inactive) | 11.8 µM (inactive) | 5.04 µM (inactive) | > 100 µM (inactive) | 13.7 µM (inactive) | 7.31 µM (inactive) | 14.2 µM (inactive) | 10.9 µM (inactive) | 14.8 µM (inactive) | – | 32.7 µM (inactive) | – | – | 50.7 µM (inactive) | – | – | 15.6 µM (inactive) | 4.8 µM (inactive)
4 | CNC(=O)C(C)Oc1ccc(OCC2CCCCC2)cc1 (centres undefined) | > 100 µM (inactive) | > 100 µM (inactive) | > 100 µM (inactive) | 25.2 µM (inactive) | > 100 µM (inactive) | – | > 100 µM (inactive) | > 100 µM (inactive) | 82.6 µM (inactive) | 25.3 µM (inactive) | 59.7 µM (inactive) | – | > 100 µM (inactive) | 34.4 µM (inactive) | – | > 100 µM (inactive) | – | – | – | –
5 | CC(=O)[C@@]1(O)CC[C@H]2[C@@H]3C[C@H](C)C4=CC(=O)CC[C@]4(C)[C@H]3[C@@H](O)C[C@@]21C | > 100 µM (inactive) | > 100 µM (inactive) | > 100 µM (inactive) | 73.6 µM (inactive) | > 100 µM (inactive) | 68.7 µM (inactive) | > 100 µM (inactive) | > 100 µM (inactive) | > 100 µM (inactive) | > 100 µM (inactive) | – | > 100 µM (inactive) | > 100 µM (inactive) | > 100 µM (inactive) | > 100 µM (inactive) | > 100 µM (inactive) | > 100 µM (inactive) | > 100 µM (inactive) | > 100 µM (inactive) | < 0.01 µM (active)
6 | COc1cc([C@@H]2c3[nH]c4ccccc4c3C(Nc3ccc([N+](=O)[O-])cc3)[C@H]3COC(=O)N23)cc(OC)c1O (some centres undefined) | 0.118 µM (active) | 0.406 µM (active) | 0.187 µM (active) | 0.407 µM (active) | 0.147 µM (active) | 1.78 µM (inactive) | 0.195 µM (active) | 0.124 µM (active) | 0.0914 µM (active) | 0.161 µM (active) | – | 0.611 µM (active) | 0.326 µM (active) | < 0.01 µM (active) | 0.352 µM (active) | 0.446 µM (active) | 0.0481 µM (active) | 0.875 µM (active) | 0.248 µM (active) | 0.0652 µM (active)
7 | COc1ccc(/C=C2/C(=O)C(c3ccccc3)N(c3ccccc3)C2=O)cc1OC (centres undefined) | > 10 µM (inactive) | 0.975 µM (active) | > 10 µM (inactive) | > 10 µM (inactive) | > 10 µM (inactive) | > 10 µM (inactive) | > 10 µM (inactive) | > 10 µM (inactive) | 0.168 µM (active) | 1.42 µM (inactive) | – | > 10 µM (inactive) | > 10 µM (inactive) | > 10 µM (inactive) | > 10 µM (inactive) | > 10 µM (inactive) | > 10 µM (inactive) | > 10 µM (inactive) | > 10 µM (inactive) | > 10 µM (inactive)
8 | CC(C)C1CC(CO)(CNc2cc(Cl)nc(N)n2)C1 (centres undefined) | > 100 µM (inactive) | > 100 µM (inactive) | > 100 µM (inactive) | 39 µM (inactive) | 44 µM (inactive) | 7.06 µM (inactive) | > 100 µM (inactive) | 73.8 µM (inactive) | 3.55 µM (inactive) | 39.2 µM (inactive) | – | 65.8 µM (inactive) | > 100 µM (inactive) | 18.1 µM (inactive) | 94 µM (inactive) | > 100 µM (inactive) | 14.9 µM (inactive) | 57.7 µM (inactive) | > 100 µM (inactive) | 11.8 µM (inactive)
9 | CC/C(=N/O)C(C)C(=O)CCC(=O)Nc1ccc(Cl)cc1 (centres undefined) | 68.4 µM (inactive) | > 100 µM (inactive) | > 100 µM (inactive) | – | > 100 µM (inactive) | > 100 µM (inactive) | 28.2 µM (inactive) | > 100 µM (inactive) | > 100 µM (inactive) | > 100 µM (inactive) | > 100 µM (inactive) | – | > 100 µM (inactive) | > 100 µM (inactive) | – | > 100 µM (inactive) | – | – | > 100 µM (inactive) | > 100 µM (inactive)
10 | CC(C)(C)c1cc(C(O)(C(F)(F)F)C(F)(F)F)c2c(c1)C(C(F)(F)F)(C(F)(F)F)OC(c1ccccc1)(C(C)(C)C)N2 (centres undefined) | 3.7 µM (inactive) | 4.33 µM (inactive) | 4.85 µM (inactive) | 3.03 µM (inactive) | 3.3 µM (inactive) | 5.18 µM (inactive) | 3.66 µM (inactive) | > 100 µM (inactive) | 2.45 µM (inactive) | 7.06 µM (inactive) | 2.82 µM (inactive) | – | 4.5 µM (inactive) | – | – | 3.02 µM (inactive) | 2.58 µM (inactive) | – | 4.5 µM (inactive) | 3.07 µM (inactive)
11 | c1cc(-c2ccsc2-c2ccsc2)cs1 | > 100 µM (inactive) | > 79.3 µM (inactive) | > 86.9 µM (inactive) | 26.1 µM (inactive) | > 100 µM (inactive) | > 100 µM (inactive) | > 88.9 µM (inactive) | > 100 µM (inactive) | 71.1 µM (inactive) | 26.9 µM (inactive) | – | 81.1 µM (inactive) | 37.3 µM (inactive) | 37.5 µM (inactive) | > 100 µM (inactive) | > 100 µM (inactive) | 16.3 µM (inactive) | 41.3 µM (inactive) | > 91.8 µM (inactive) | 29.9 µM (inactive)
12 | Nc1nc[n+](Cc2ccccc2CCO)c2[nH]cnc12 | > 100 µM (inactive) | > 100 µM (inactive) | > 100 µM (inactive) | > 100 µM (inactive) | > 100 µM (inactive) | > 100 µM (inactive) | > 100 µM (inactive) | > 100 µM (inactive) | > 100 µM (inactive) | > 100 µM (inactive) | > 100 µM (inactive) | – | > 100 µM (inactive) | > 100 µM (inactive) | – | > 100 µM (inactive) | – | – | > 100 µM (inactive) | > 100 µM (inactive)
13 | CCCCCCCCCCCCCP(=O)(O)NCC(N)=O | 28.6 µM (inactive) | 41.2 µM (inactive) | 52.7 µM (inactive) | 34.5 µM (inactive) | 33.5 µM (inactive) | > 100 µM (inactive) | 52.4 µM (inactive) | 55.7 µM (inactive) | 61.1 µM (inactive) | > 100 µM (inactive) | 32.2 µM (inactive) | – | 85.1 µM (inactive) | 19.7 µM (inactive) | – | 58.3 µM (inactive) | – | – | 99.8 µM (inactive) | 35.1 µM (inactive)
14 | COc1cccc2c1[C@]1(O)C(O)CCCC21 (some centres undefined) | > 100 µM (inactive) | > 100 µM (inactive) | > 100 µM (inactive) | > 100 µM (inactive) | > 100 µM (inactive) | > 10 µM (inactive) | > 100 µM (inactive) | > 100 µM (inactive) | > 100 µM (inactive) | > 100 µM (inactive) | > 100 µM (inactive) | – | > 100 µM (inactive) | – | – | > 100 µM (inactive) | – | – | > 100 µM (inactive) | > 100 µM (inactive)
15 | CC(=O)c1cccc(NC(=O)C(=O)c2c(O)oc3ccccc3c2=O)c1 | > 100 µM (inactive) | > 100 µM (inactive) | > 100 µM (inactive) | > 100 µM (inactive) | > 100 µM (inactive) | > 100 µM (inactive) | > 100 µM (inactive) | > 100 µM (inactive) | > 100 µM (inactive) | > 100 µM (inactive) | – | > 100 µM (inactive) | > 100 µM (inactive) | 10 µM (inactive) | > 100 µM (inactive) | > 100 µM (inactive) | > 100 µM (inactive) | > 100 µM (inactive) | > 100 µM (inactive) | > 100 µM (inactive)
16 | Oc1ccc(/C=C/c2cc(O)cc3c2C(c2cc(O)cc(O)c2)C(c2ccc(O)c(O)c2)O3)cc1 (centres undefined) | 15 µM (inactive) | 31.4 µM (inactive) | 17.6 µM (inactive) | 27 µM (inactive) | 31 µM (inactive) | 25.3 µM (inactive) | 18.2 µM (inactive) | 34.4 µM (inactive) | 17.2 µM (inactive) | 26.7 µM (inactive) | – | 23.7 µM (inactive) | 25.6 µM (inactive) | 27.1 µM (inactive) | 29 µM (inactive) | 27.1 µM (inactive) | 17.6 µM (inactive) | 18.2 µM (inactive) | 39.2 µM (inactive) | 13.5 µM (inactive)
